Data: patent US8952024B2, “Herbicidal pyrimidone derivatives” (E I du Pont de Nemours and Company, priority 2009, dated 2015)

Tests used:
Assay type in all cases: in vivo
[1] = test system: barnyardgrass (Echinochloa crus-galli); assay: Test A pre-/postemergence plant response
Outline: (§1)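 Greenhouse pots of loam/sand received directed preemergence soil sprays or postemergence sprays (plants 2–10 cm, 1–2 leaf stage), compounds formulated in non-phytotoxic solvent with surfactant. Injury was rated visually versus untreated controls after about ten days on a 0 (no effect) to 100 (complete control) scale.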

corn (Zea mays) = assay: Test A pre-/postemergence plant response
Outline: as §1

[2] = test system: giant foxtail (Setaria faberii); assay: Test A pre-/postemergence plant response
Outline: as §1

[3] = test system: large crabgrass (Digitaria sanguinalis); assay: Test A pre-/postemergence plant response
Outline: as §1

[4] = test system: morningglory (Ipomoea spp.); assay: Test A pre-/postemergence plant response
Outline: as §1

[5] = test system: pigweed (Amaranthus retroflexus); assay: Test A pre-/postemergence plant response
Outline: as §1

[6] = test system: velvetleaf (Abutilon theophrasti); assay: Test A pre-/postemergence plant response
Outline: as §1

[7] = test system: wheat (Triticum aestivum); assay: Test A pre-/postemergence plant response
Outline: as §1

[8] = test system: barnyardgrass (Echinochloa crus-galli); assay: Test B flooded paddy test; conditions: for Plant response rating, Flood, Barnyardgrass: 250 g ai/ha, flooded paddy test, visual rating on 0 to 100 scale (0 no effect, 100 complete control) after 13 to 15 days; for Plant response rating, Barnyardgrass: Flood (flooded paddy test), 13 to 15 days; for Barnyardgrass plant response rating: Flood, 31 g ai/ha, scale 0 to 100 (0 no effect, 100 complete control)
Outline: (§2)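 Flooded-pot test: water raised to 3 cm above soil when treating, compound put in the water, level unchanged thereafter. Plants were at 2 leaves. Readout after 13 to 15 days, visual, relative to controls; 0 signifies no effect and 100 complete control.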

[9] = test system: ducksalad (Heteranthera limosa); assay: Test B flooded paddy test; conditions: for Plant response rating, Flood, Ducksalad: 250 g ai/ha, flooded paddy test, visual rating on 0 to 100 scale (0 no effect, 100 complete control) after 13 to 15 days; for Plant response rating, Ducksalad: Flood (flooded paddy test), 13 to 15 days; for Ducksalad plant response rating: Flood, 31 g ai/ha, scale 0 to 100 (0 no effect, 100 complete control)
Outline: as §2

rice (Oryza sativa) = assay: Test B flooded paddy test; conditions: for Plant response rating, Flood, Rice: 250 g ai/ha, flooded paddy test, visual rating on 0 to 100 scale (0 no effect, 100 complete control) after 13 to 15 days; for Plant response rating, Rice: Flood (flooded paddy test), 13 to 15 days; for Rice plant response rating: Flood, 31 g ai/ha, scale 0 to 100 (0 no effect, 100 complete control)
Outline: as §2

[10] = test system: umbrella sedge (Cyperus difformis); assay: Test B flooded paddy test; conditions: for Plant response rating, Flood, Sedge, Umbrella: 250 g ai/ha, flooded paddy test, visual rating on 0 to 100 scale (0 no effect, 100 complete control) after 13 to 15 days; for Plant response rating, Sedge, Umbrella: Flood (flooded paddy test), 13 to 15 days; for Sedge, Umbrella plant response rating: Flood, 31 g ai/ha, scale 0 to 100 (0 no effect, 100 complete control)
Outline: as §2

[11] = Postemergence, 125 g ai/ha, 0 to 100 scale where 0 is no effect and 100 is complete control
[12] = Postemergence, 500 g ai/ha, 0 to 100 scale, 0 = no effect, 100 = complete control, approx. ten days
[13] = Preemergence, 125 g ai/ha, 0 to 100 scale, 0 = no effect, 100 = complete control
[14] = Preemergence, 500 g ai/ha, visual injury, 0 to 100 scale (0 no effect, 100 complete control), approx. ten days
[15] = 62 g ai/ha, scale of 0 to 100 where 0 is no effect and 100 is complete control
[16] = 125 g ai/ha, scale 0 to 100, 0 is no effect, 100 is complete control

For `O=C1CCCC(O)=C1C(=O)c1cnc(C2CC2)n(-c2ccccc2)c1=O` [Compound 87], which “Plant response rating, Barnyardgrass” value [1, 11] is on record?
The value was 80.

And the “Plant response rating, Barnyardgrass” value [1, 12]?
The value was 90.

And the “Plant response rating, Barnyardgrass” value [1, 13]?
The value was 20.

And the “Plant response rating, Barnyardgrass” value [1, 14]?
The value was 90.

And the “Plant response rating, Corn” value (corn (Zea mays); [11])?
Its value is 10.

What about the “Plant response rating, Corn” value (corn (Zea mays); [12]) of the same compound?
Its value is 50.

What about the “Plant response rating, Corn” value (corn (Zea mays); [13]) of the same compound?
The value was 0.

And the “Plant response rating, Corn” value (corn (Zea mays); [14])?
Its value is 0.

And the “Plant response rating, Foxtail, Giant” value [2, 11]?
Its value is 70.

What about the “Plant response rating, Foxtail, Giant” value [2, 12] of the same compound?
The value was 90.

What about the “Plant response rating, Foxtail, Giant” value [2, 14] of the same compound?
Its value is 80.

And the “Plant response rating, Crabgrass, Large” value [3, 11]?
The value was 90.

What about the “Plant response rating, Crabgrass, Large” value [3, 12] of the same compound?
The value was 90.

And the “Plant response rating, Crabgrass, Large” value [3, 14]?
Its value is 100.

What about the “Plant response rating, Morningglory” value [4, 11] of the same compound?
The value was 90.

What about the “Plant response rating, Morningglory” value [4, 12] of the same compound?
Its value is 100.

What about the “Plant response rating, Morningglory” value [4, 13] of the same compound?
The value was 50.

What about the “Plant response rating, Morningglory” value [4, 14] of the same compound?
The value was 80.

And the “Plant response rating, Pigweed” value [5, 11]?
The value was 100.

And the “Plant response rating, Pigweed” value [5, 12]?
The value was 100.

And the “Plant response rating, Velvetleaf” value [6, 11]?
The value was 100.

What about the “Plant response rating, Velvetleaf” value [6, 12] of the same compound?
The value was 100.

What about the “Plant response rating, Velvetleaf” value [6, 13] of the same compound?
The value was 100.

What about the “Plant response rating, Velvetleaf” value [6, 14] of the same compound?
The value was 100.

And the “Plant response rating, Wheat” value [7, 11]?
Its value is 30.

And the “Plant response rating, Wheat” value [7, 12]?
The value was 60.

What about the “Plant response rating, Wheat” value [7, 13] of the same compound?
Its value is 10.

What about the “Plant response rating, Wheat” value [7, 14] of the same compound?
The value was 40.

And the “Plant response rating, Flood, Barnyardgrass” value [8]?
The value was 60.

What about the “Plant response rating, Barnyardgrass” value [8, 15] of the same compound?
The value was 45.

What about the “Plant response rating, Barnyardgrass” value [8, 16] of the same compound?
Its value is 55.

What about the “Barnyardgrass plant response rating” value [8] of the same compound?
The value was 20.

And the “Plant response rating, Flood, Ducksalad” value [9]?
The value was 20.

What about the “Plant response rating, Ducksalad” value [9, 15] of the same compound?
Its value is 30.

And the “Plant response rating, Ducksalad” value [9, 16]?
The value was 20.

And the “Ducksalad plant response rating” value [9]?
The value was 20.

And the “Plant response rating, Flood, Rice” value (rice (Oryza sativa))?
The value was 70.

What about the “Plant response rating, Rice” value (rice (Oryza sativa); [15]) of the same compound?
Its value is 20.

And the “Plant response rating, Rice” value (rice (Oryza sativa); [16])?
The value was 60.

And the “Rice plant response rating” value (rice (Oryza sativa))?
The value was 0.

And the “Plant response rating, Flood, Sedge, Umbrella” value [10]?
The value was 70.

And the “Plant response rating, Sedge, Umbrella” value [10, 15]?
The value was 20.

And the “Plant response rating, Sedge, Umbrella” value [10, 16]?
Its value is 50.

And the “Sedge, Umbrella plant response rating” value [10]?
The value was 0.

What does the source list for `O=C1CCCC(O)=C1C(=O)c1cnc(-c2ccccc2)n(C2CC2)c1=O` [Compound 90]?
Plant response rating, Barnyardgrass [1, 11]: 80; Plant response rating, Barnyardgrass [1, 12]: 90; Plant response rating, Barnyardgrass [1, 13]: 40; Plant response rating, Barnyardgrass [1, 14]: 70; Plant response rating, Corn (corn (Zea mays); [11]): 0; Plant response rating, Corn (corn (Zea mays); [12]): 20; Plant response rating, Corn (corn (Zea mays); [13]): 0; Plant response rating, Corn (corn (Zea mays); [14]): 0; Plant response rating, Foxtail, Giant [2, 11]: 70; Plant response rating, Foxtail, Giant [2, 12]: 80; Plant response rating, Foxtail, Giant [2, 13]: 30; Plant response rating, Foxtail, Giant [2, 14]: 60; Plant response rating, Crabgrass, Large [3, 11]: 80; Plant response rating, Crabgrass, Large [3, 12]: 90; Plant response rating, Crabgrass, Large [3, 13]: 60; Plant response rating, Crabgrass, Large [3, 14]: 100; Plant response rating, Morningglory [4, 11]: 100; Plant response rating, Morningglory [4, 12]: 100; Plant response rating, Morningglory [4, 13]: 0; Plant response rating, Morningglory [4, 14]: 70; Plant response rating, Pigweed [5, 11]: 100; Plant response rating, Pigweed [5, 12]: 100; Plant response rating, Pigweed [5, 13]: 80; Plant response rating, Pigweed [5, 14]: 100; Plant response rating, Velvetleaf [6, 11]: 100; Plant response rating, Velvetleaf [6, 12]: 100; Plant response rating, Velvetleaf [6, 13]: 70; Plant response rating, Velvetleaf [6, 14]: 100; Plant response rating, Wheat [7, 11]: 0; Plant response rating, Wheat [7, 12]: 40; Plant response rating, Wheat [7, 13]: 0; Plant response rating, Wheat [7, 14]: 0; Plant response rating, Flood, Barnyardgrass [8]: 30; Plant response rating, Barnyardgrass [8, 15]: 0; Plant response rating, Barnyardgrass [8, 16]: 15; Barnyardgrass plant response rating [8]: 0; Plant response rating, Flood, Ducksalad [9]: 90; Plant response rating, Ducksalad [9, 15]: 65; Plant response rating, Ducksalad [9, 16]: 80; Ducksalad plant response rating [9]: 50; Plant response rating, Flood, Rice (rice (Oryza sativa)): 0; Plant response rating, Rice (rice (Oryza sativa); [15]): 0; Plant response rating, Rice (rice (Oryza sativa); [16]): 0; Rice plant response rating (rice (Oryza sativa)): 0; Plant response rating, Flood, Sedge, Umbrella [10]: 80; Plant response rating, Sedge, Umbrella [10, 15]: 60; Plant response rating, Sedge, Umbrella [10, 16]: 75; Sedge, Umbrella plant response rating [10]: 50
